Test results taken from patent US20020111274A1, “1-alkyl-3-[1-(substituted phenyl) benzotriazol-6-yl] uracils” (BASF Aktiengesellschaft, priority 2000, published 2002).

What was measured:
Parameters in all cases: scale not given here
CASOB Sicklepod [1] = assay: Postemergence herbicidal evaluation, CASOB; format: in vivo, Cassia obtusifolia, L.; conditions: postemergence spray, rated about two-three weeks after treatment
How it was run: (§1)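 Seedlings grown about two weeks were sprayed with compound in 80/20 acetone/water containing 1.0% methylated seed oil, at the equivalent of about 0.006 to 0.400 kg/ha, through a nozzle at 40 psi. Plants were kept in the greenhouse and rated visually about two to three weeks after treatment.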

GALAP Galium [2] = assay: Postemergence herbicidal evaluation, GALAP; format: in vivo, Galium aparine; conditions: postemergence spray, rated about two-three weeks after treatment
How it was run: as §1

ORYSAT Rice, Tebonnet [3] = assay: Postemergence herbicidal evaluation, ORYSAT; format: in vivo, Oryza sativa, (L.); conditions: postemergence spray, rated about two-three weeks after treatment
How it was run: as §1

[4] = test system: CHEAL Lambsquarters, Common; assay: Preemergence herbicidal evaluation, CHEAL; format: in vivo, Chenopodium album, L.; conditions: preemergence
How it was run: (§2)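 Compound applied preemergence as an aqueous acetone spray onto freshly planted cups, dose equivalent approx. 0.013 to 0.800 kg/ha. Evaluation by rating at weeks 4–5.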

ECHOG Barnyardgrass [5] = assay: Preemergence herbicidal evaluation, ECHOG; format: in vivo, Echinochloa crus-galli, (L.) Beau; conditions: preemergence
How it was run: as §2

[6] = test system: IPOHE Morningglory, Ivyleaf; assay: Postemergence herbicidal evaluation, IPOHE; format: in vivo, Ipomoea hederacea, (L.) Jacq.; conditions: postemergence spray, rated about two-three weeks after treatment
How it was run: as §1

ZEAMX Corn, Field [7] = assay: Preemergence herbicidal evaluation, ZEAMX; format: in vivo, Zea mays, L. (Sammel-Bezeichnung); conditions: preemergence
How it was run: as §2

AMBEL Ragweed, Common [8] = assay: Postemergence herbicidal evaluation, AMBEL; format: in vivo, Ambrosia artemisifolia, L.; conditions: postemergence spray, rated about two-three weeks after treatment
How it was run: as §1

ECHOG Barnyardgrass [9] = assay: Postemergence herbicidal evaluation, ECHOG; format: in vivo, Echinochloa crus-galli, (L.) Beau; conditions: postemergence spray, rated about two-three weeks after treatment
How it was run: as §1

SETVI Foxtail, Green [10] = assay: Postemergence herbicidal evaluation, SETVI; format: in vivo, Setaria viridis, (L.) Beau; conditions: postemergence spray, rated about two-three weeks after treatment
How it was run: as §1

CASOB Sicklepod [11] = assay: Preemergence herbicidal evaluation, CASOB; format: in vivo, Cassia obtusifolia, L.; conditions: preemergence
How it was run: as §2

[12] = test system: IPOHE Morningglory, Ivyleaf; assay: Preemergence herbicidal evaluation, IPOHE; format: in vivo, Ipomoea hederacea, (L.) Jacq.; conditions: preemergence
How it was run: as §2

AMBEL Ragweed, Common [13] = assay: Preemergence herbicidal evaluation, AMBEL; format: in vivo, Ambrosia artemisifolia, L.; conditions: preemergence
How it was run: as §2

SETVI Foxtail, Green [14] = assay: Preemergence herbicidal evaluation, SETVI; format: in vivo, Setaria viridis, (L.) Beau; conditions: preemergence
How it was run: as §2

[15] = test system: CHEAL Lambsquarters, Common; assay: Postemergence herbicidal evaluation, CHEAL; format: in vivo, Chenopodium album, L.; conditions: postemergence spray, rated about two-three weeks after treatment
How it was run: as §1

[16] = test system: TRZAWR Wheat, Winter, cv Riband; assay: Postemergence herbicidal evaluation, TRZAWR; format: in vivo, Triticum aestivum; conditions: postemergence spray, rated about two-three weeks after treatment
How it was run: as §1

ABUTH Velvetleaf [17] = assay: Postemergence herbicidal evaluation, ABUTH; format: in vivo, Abutilon theophrasti, Medic.; conditions: postemergence spray, rated about two-three weeks after treatment
How it was run: as §1

ABUTH Velvetleaf [18] = assay: Preemergence herbicidal evaluation, ABUTH; format: in vivo, Abutilon theophrasti, Medic.; conditions: preemergence
How it was run: as §2

GALAP Galium [19] = assay: Preemergence herbicidal evaluation, GALAP; format: in vivo, Galium aparine; conditions: preemergence
How it was run: as §2

[20] = test system: TRZAWR Wheat, Winter, cv Riband; assay: Preemergence herbicidal evaluation, TRZAWR; format: in vivo, Triticum aestivum; conditions: preemergence
How it was run: as §2

ORYSAT Rice, Tebonnet [21] = assay: Preemergence herbicidal evaluation, ORYSAT; format: in vivo, Oryza sativa, (L.); conditions: preemergence
How it was run: as §2

GLXMAW Soybean, Williams [22] = assay: Postemergence herbicidal evaluation, GLXMAW; format: in vivo, Glycine max, (L.) Merr. cv Williams; conditions: postemergence spray, rated about two-three weeks after treatment
How it was run: as §1

GLXMAW Soybean, Williams [23] = assay: Preemergence herbicidal evaluation, GLXMAW; format: in vivo, Glycine max, (L.) Merr. cv Williams; conditions: preemergence
How it was run: as §2

ZEAMX Corn, Field [24] = assay: Postemergence herbicidal evaluation, ZEAMX; format: in vivo, Zea mays, L. (Sammel-Bezeichnung); conditions: postemergence spray, rated about two-three weeks after treatment
How it was run: as §1

Structure (SMILES): COCc1ccccc1-n1nnc2cc(F)c(-n3c(=O)cc(C(F)(F)F)n(C)c3=O)cc21 [Example 26]
- Postemergence herbicidal rating CASOB (CASOB Sicklepod [1]; 0.008 kg/ha): 1.0
- Postemergence herbicidal rating CASOB (CASOB Sicklepod [1]; 0.016 kg/ha): 2.0
- Postemergence herbicidal rating CASOB (CASOB Sicklepod [1]; 0.032 kg/ha): 2.0
- Postemergence herbicidal rating CASOB (CASOB Sicklepod [1]; 0.062 kg/ha): 4.0
- Postemergence herbicidal rating GALAP (GALAP Galium [2]; 0.008 kg/ha): 1.0
- Postemergence herbicidal rating GALAP (GALAP Galium [2]; 0.016 kg/ha): 1.0
- Postemergence herbicidal rating GALAP (GALAP Galium [2]; 0.032 kg/ha): 2.0
- Postemergence herbicidal rating GALAP (GALAP Galium [2]; 0.062 kg/ha): 6.0
- Postemergence herbicidal rating ORYSAT (ORYSAT Rice, Tebonnet [3]; 0.008 kg/ha): 2.0
- Postemergence herbicidal rating ORYSAT (ORYSAT Rice, Tebonnet [3]; 0.016 kg/ha): 2.0
- Postemergence herbicidal rating ORYSAT (ORYSAT Rice, Tebonnet [3]; 0.032 kg/ha): 3.0
- Postemergence herbicidal rating ORYSAT (ORYSAT Rice, Tebonnet [3]; 0.062 kg/ha): 4.5
- CHEAL herbicidal rating ([4]; rate 0.032 kg/ha): 7.0
- CHEAL herbicidal rating ([4]; rate 0.062 kg/ha): 9.0
- CHEAL herbicidal rating ([4]; rate 0.125 kg/ha): 9.0
- ECHCG herbicidal rating (ECHOG Barnyardgrass [5]; rate 0.016 kg/ha): 1.0
- ECHCG herbicidal rating (ECHOG Barnyardgrass [5]; rate 0.032 kg/ha): 6.0
- ECHCG herbicidal rating (ECHOG Barnyardgrass [5]; rate 0.062 kg/ha): 7.0
- ECHCG herbicidal rating (ECHOG Barnyardgrass [5]; rate 0.125 kg/ha): 9.0
- Postemergence herbicidal rating IPOHE ([6]; 0.008 kg/ha): 4.0
- Postemergence herbicidal rating IPOHE ([6]; 0.016 kg/ha): 9.0
- Postemergence herbicidal rating IPOHE ([6]; 0.032 kg/ha): 9.0
- Postemergence herbicidal rating IPOHE ([6]; 0.062 kg/ha): 9.0
- ZEAMX herbicidal rating (ZEAMX Corn, Field [7]; rate 0.016 kg/ha): 1.0
- ZEAMX herbicidal rating (ZEAMX Corn, Field [7]; rate 0.032 kg/ha): 4.0
- ZEAMX herbicidal rating (ZEAMX Corn, Field [7]; rate 0.062 kg/ha): 7.0
- ZEAMX herbicidal rating (ZEAMX Corn, Field [7]; rate 0.125 kg/ha): 7.0
- Postemergence herbicidal rating AMBEL (AMBEL Ragweed, Common [8]; 0.008 kg/ha): 4.0
- Postemergence herbicidal rating AMBEL (AMBEL Ragweed, Common [8]; 0.016 kg/ha): 6.0
- Postemergence herbicidal rating AMBEL (AMBEL Ragweed, Common [8]; 0.032 kg/ha): 7.0
- Postemergence herbicidal rating AMBEL (AMBEL Ragweed, Common [8]; 0.062 kg/ha): 9.0
- Postemergence herbicidal rating ECHCG (ECHOG Barnyardgrass [9]; 0.008 kg/ha): 1.0
- Postemergence herbicidal rating ECHCG (ECHOG Barnyardgrass [9]; 0.016 kg/ha): 1.0
- Postemergence herbicidal rating ECHCG (ECHOG Barnyardgrass [9]; 0.032 kg/ha): 1.0
- Postemergence herbicidal rating ECHCG (ECHOG Barnyardgrass [9]; 0.062 kg/ha): 3.0
- Postemergence herbicidal rating SETVI (SETVI Foxtail, Green [10]; 0.008 kg/ha): 1.0
- Postemergence herbicidal rating SETVI (SETVI Foxtail, Green [10]; 0.016 kg/ha): 5.0
- Postemergence herbicidal rating SETVI (SETVI Foxtail, Green [10]; 0.032 kg/ha): 2.0
- Postemergence herbicidal rating SETVI (SETVI Foxtail, Green [10]; 0.062 kg/ha): 5.0
- CASOB herbicidal rating (CASOB Sicklepod [11]; rate 0.016 kg/ha): 0.0
- CASOB herbicidal rating (CASOB Sicklepod [11]; rate 0.032 kg/ha): 0.0
- CASOB herbicidal rating (CASOB Sicklepod [11]; rate 0.062 kg/ha): 7.0
- CASOB herbicidal rating (CASOB Sicklepod [11]; rate 0.125 kg/ha): 7.0
- IPOHE herbicidal rating ([12]; rate 0.016 kg/ha): 0.0
- IPOHE herbicidal rating ([12]; rate 0.032 kg/ha): 9.0
- IPOHE herbicidal rating ([12]; rate 0.062 kg/ha): 6.0
- IPOHE herbicidal rating ([12]; rate 0.125 kg/ha): 9.0
- AMBEL herbicidal rating (AMBEL Ragweed, Common [13]; rate 0.016 kg/ha): 2.0
- AMBEL herbicidal rating (AMBEL Ragweed, Common [13]; rate 0.032 kg/ha): 7.0
- AMBEL herbicidal rating (AMBEL Ragweed, Common [13]; rate 0.062 kg/ha): 7.0
- AMBEL herbicidal rating (AMBEL Ragweed, Common [13]; rate 0.125 kg/ha): 9.0
- SETVI herbicidal rating (SETVI Foxtail, Green [14]; rate 0.016 kg/ha): 2.0
- SETVI herbicidal rating (SETVI Foxtail, Green [14]; rate 0.032 kg/ha): 9.0
- SETVI herbicidal rating (SETVI Foxtail, Green [14]; rate 0.062 kg/ha): 9.0
- SETVI herbicidal rating (SETVI Foxtail, Green [14]; rate 0.125 kg/ha): 9.0
- Postemergence herbicidal rating CHEAL ([15]; 0.008 kg/ha): 2.0
- Postemergence herbicidal rating CHEAL ([15]; 0.016 kg/ha): 7.0
- Postemergence herbicidal rating CHEAL ([15]; 0.032 kg/ha): 9.0
- Postemergence herbicidal rating TRZAWR ([16]; 0.008 kg/ha): 2.0
- Postemergence herbicidal rating TRZAWR ([16]; 0.016 kg/ha): 2.5
- Postemergence herbicidal rating TRZAWR ([16]; 0.032 kg/ha): 3.0
- Postemergence herbicidal rating TRZAWR ([16]; 0.062 kg/ha): 4.0
- Postemergence herbicidal rating ABUTH (ABUTH Velvetleaf [17]; 0.008 kg/ha): 9.0
- Postemergence herbicidal rating ABUTH (ABUTH Velvetleaf [17]; 0.016 kg/ha): 9.0
- Postemergence herbicidal rating ABUTH (ABUTH Velvetleaf [17]; 0.032 kg/ha): 9.0
- Postemergence herbicidal rating ABUTH (ABUTH Velvetleaf [17]; 0.062 kg/ha): 9.0
- ABUTH herbicidal rating (ABUTH Velvetleaf [18]; rate 0.016 kg/ha): 9.0
- ABUTH herbicidal rating (ABUTH Velvetleaf [18]; rate 0.032 kg/ha): 9.0
- ABUTH herbicidal rating (ABUTH Velvetleaf [18]; rate 0.062 kg/ha): 9.0
- ABUTH herbicidal rating (ABUTH Velvetleaf [18]; rate 0.125 kg/ha): 9.0
- GALAP herbicidal rating (GALAP Galium [19]; rate 0.016 kg/ha): 0.0
- GALAP herbicidal rating (GALAP Galium [19]; rate 0.032 kg/ha): 0.0
- GALAP herbicidal rating (GALAP Galium [19]; rate 0.062 kg/ha): 7.0
- GALAP herbicidal rating (GALAP Galium [19]; rate 0.125 kg/ha): 8.0
- TRZAWR herbicidal rating ([20]; rate 0.016 kg/ha): 0.0
- TRZAWR herbicidal rating ([20]; rate 0.062 kg/ha): 6.0
- TRZAWR herbicidal rating ([20]; rate 0.125 kg/ha): 8.0
- ORYSAT herbicidal rating (ORYSAT Rice, Tebonnet [21]; rate 0.016 kg/ha): 0.0
- ORYSAT herbicidal rating (ORYSAT Rice, Tebonnet [21]; rate 0.032 kg/ha): 3.0
- ORYSAT herbicidal rating (ORYSAT Rice, Tebonnet [21]; rate 0.062 kg/ha): 5.0
- ORYSAT herbicidal rating (ORYSAT Rice, Tebonnet [21]; rate 0.125 kg/ha): 7.0
- Postemergence herbicidal rating GLXMAW (GLXMAW Soybean, Williams [22]; 0.008 kg/ha): 4.5
- Postemergence herbicidal rating GLXMAW (GLXMAW Soybean, Williams [22]; 0.016 kg/ha): 5.0
- Postemergence herbicidal rating GLXMAW (GLXMAW Soybean, Williams [22]; 0.032 kg/ha): 5.5
- Postemergence herbicidal rating GLXMAW (GLXMAW Soybean, Williams [22]; 0.062 kg/ha): 9.0
- GLXMAW herbicidal rating (GLXMAW Soybean, Williams [23]; rate 0.016 kg/ha): 1.0
- GLXMAW herbicidal rating (GLXMAW Soybean, Williams [23]; rate 0.032 kg/ha): 2.0
- GLXMAW herbicidal rating (GLXMAW Soybean, Williams [23]; rate 0.062 kg/ha): 9.0
- GLXMAW herbicidal rating (GLXMAW Soybean, Williams [23]; rate 0.125 kg/ha): 5.0
- Postemergence herbicidal rating ZEAMX (ZEAMX Corn, Field [24]; 0.008 kg/ha): 3.5
- Postemergence herbicidal rating ZEAMX (ZEAMX Corn, Field [24]; 0.016 kg/ha): 4.0
- Postemergence herbicidal rating ZEAMX (ZEAMX Corn, Field [24]; 0.032 kg/ha): 4.0
- Postemergence herbicidal rating ZEAMX (ZEAMX Corn, Field [24]; 0.062 kg/ha): 6.5
